Measured values reported in paper PMC10825133, “Repurposing proteasome inhibitors for improved treatment of triple-negative breast cancer” (Cell Death Discovery, 2024).
Where two headings read alike, the source gives them in different places.

How the values were obtained:
BT-549 cells = experiment: Resazurin-based cell viability assay, monotherapy drug screen; set-up: species or system human; AUC: scale not given here; conditions: BT-549; for AUC: area under the dose response curve, 24 h; for GRmax: drug efficacy at highest tested dose (<0 cytotoxic, 0 cytostatic, >0 partial growth inhibition); for IC50: Homo sapiens
Summary of the method: (§1)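 Cells were seeded at the highest density (tested 1000-16000 cells/well) giving linear growth between days 1 and 3, keeping them in exponential phase over the ~52 h experiment. Viability was read after 4 h at 37 °C with 0.2 mg/ml resazurin added at 10% of medium volume; ex 560/em 615 nm.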

HCC1806 cells = experiment: as above; set-up: species or system human; AUC: scale not given here; conditions: HCC1806; for AUC: area under the dose response curve, 24 h; for GRmax: drug efficacy at highest tested dose (<0 cytotoxic, 0 cytostatic, >0 partial growth inhibition); for IC50: Homo sapiens
Summary of the method: as §1

HCC38 cells = experiment: as above; set-up: species or system human; AUC: scale not given here; conditions: HCC38; for AUC: area under the dose response curve, 24 h; for GRmax: drug efficacy at highest tested dose (<0 cytotoxic, 0 cytostatic, >0 partial growth inhibition); for IC50: Homo sapiens
Summary of the method: as §1

HCC70 cells = experiment: as above; set-up: species or system human; AUC: scale not given here; conditions: HCC70; for AUC: area under the dose response curve, 24 h; for GRmax: drug efficacy at highest tested dose (<0 cytotoxic, 0 cytostatic, >0 partial growth inhibition); for IC50: Homo sapiens
Summary of the method: as §1

MCF-10A cells = experiment: as above; set-up: species or system human; AUC: scale not given here; conditions: for IC50: Homo sapiens; for AUC: area under the dose response curve, 24 h
Summary of the method: as §1

MCF-7 cells = experiment: as above; set-up: species or system human; AUC: scale not given here; conditions: MCF-7; for IC50: Homo sapiens, MCF7, growth rate inhibition concentration at GR(c) = 0.5, 24 h, read-out: GR50 (the source's name); for AUC: area under the dose response curve, 24 h; for GRmax: drug efficacy at highest tested dose (<0 cytotoxic, 0 cytostatic, >0 partial growth inhibition)
Summary of the method: as §1

MDA-MB-436 cells = experiment: as above; set-up: species or system human; AUC: scale not given here; conditions: MDA-MB-436; for IC50: Homo sapiens, growth rate inhibition concentration at GR(c) = 0.5, 24 h, read-out: GR50 (the source's name); for AUC: area under the dose response curve, 24 h; for GRmax: drug efficacy at highest tested dose (<0 cytotoxic, 0 cytostatic, >0 partial growth inhibition)
Summary of the method: as §1

MDA-MB-453 cells = experiment: as above; set-up: species or system human; AUC: scale not given here; conditions: MDA-MB-453; for AUC: area under the dose response curve, 24 h
Summary of the method: as §1

MDA-MB-468 cells = experiment: as above; set-up: species or system human; AUC: scale not given here; conditions: MDA-MB-468; for AUC: area under the dose response curve, 24 h; for IC50: Homo sapiens
Summary of the method: as §1

[1] = system: eight TNBC cell lines (BT-549, CAL-148, HCC1806, HCC38, HCC70, MDA-MB-436, MDA-MB-453, MDA-MB-468); experiment: Monotherapy drug screen, mean across the TNBC cell lines; conditions: 24 h; for IC50: Homo sapiens, read-out: GR50 (mean ± SD); for area under the dose response curve (AUC), mean ± SD: TNBC cell lines
Summary of the method: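 Cells seeded at 4.0 × 10^3–7.5 × 10^3/well, grown 24 h, then drug-treated 24 h with matched solvent-vehicle controls per concentration; resazurin absorbance read-out, viability normalised to vehicle after background subtraction, t = 0 untreated cells for GR. AUC, IC50, GR50, GRmax via GRmetrics; combinations predicted by IDACombo, synergy scored with SynergyFinder.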

[2] = growth rate inhibition concentration at GR(c) = 0.5, 24 h, read-out: GR50 (the source's name)
[3] = 24 h drug treatment, read-out: IC50

| SMILES | AUC (BT-549 cells) | GRmax (BT-549 cells) | AUC (HCC1806 cells) | GRmax (HCC1806 cells) | AUC (HCC38 cells) | GRmax (HCC38 cells) | IC50 (HCC38 cells; [2]) | AUC (HCC70 cells) | GRmax (HCC70 cells) | IC50 (MCF-10A cells; [3]) | IC50 (MCF-10A cells; [2]) | AUC (MCF-10A cells) | IC50 (MCF-7 cells) | AUC (MCF-7 cells) | GRmax (MCF-7 cells) | IC50 (MDA-MB-436 cells) | AUC (MDA-MB-436 cells) | GRmax (MDA-MB-436 cells) | AUC (MDA-MB-453 cells) | AUC (MDA-MB-468 cells) | other results |
| --- | --- | --- | --- | --- | --- | --- | --- | --- | --- | --- | --- | --- | --- | --- | --- | --- | --- | --- | --- | --- | --- |
| CC(=O)O[C@@]12CO[C@@H]1C[C@H](O)[C@@]1(C)C(=O)[C@H](O)C3=C(C)[C@@H](OC(=O)[C@H](O)[C@@H](NC(=O)OC(C)(C)C)c4ccccc4)C[C@@](O)([C@@H](OC(=O)c4ccccc4)[C@H]21)C3(C)C [Docetaxel] | 0.79 | 0.61 | 0.64 | 0.56 | 0.78 | 0.17 | 0.013 µM | 0.83 | 0.72 | 0.05 µM | 0.009 µM | 0.63 | 0.0065 µM | 0.75 | −0.44 | 0.005 µM | 0.69 | −0.81 | 0.87 | 0.77 | IC50 [1]: 0.0088 ± 0.0039 µM; area under the dose response curve (AUC), mean ± SD [1]: 0.79 ± 0.10 |
| CC(C)C[C@H](NC(=O)[C@H](CCc1ccccc1)NC(=O)CN1CCOCC1)C(=O)N[C@@H](Cc1ccccc1)C(=O)N[C@@H](CC(C)C)C(=O)[C@@]1(C)CO1 [Carfilzomib] | 0.67 | 0.37 | 0.73 | 0.31 | 0.71 | −0.99 | 0.38 µM | 0.76 | −0.57 | 0.54 µM | 0.11 µM | 0.66 | 0.19 µM | 0.81 | −0.45 | 0.0018 µM | 0.73 | −0.89 | 0.77 | 0.65 | IC50 (BT-549 cells; [3]): 4.4 µM; IC50 (BT-549 cells; [2]): 1 µM; IC50 (HCC1806 cells; [3]): 1.7 µM; IC50 (HCC1806 cells; [2]): 0.95 µM; IC50 (HCC38 cells; [3]): 0.57 µM; IC50 (HCC70 cells; [3]): 2.1 µM; IC50 (HCC70 cells; [2]): 0.48 µM; IC50 (MDA-MB-453 cells; Homo sapiens, growth rate inhibition concentration at GR(c) = 0.5, 24 h, read-out: GR50 (the source's name)): 0.22 µM; IC50 (MDA-MB-468 cells; [3]): 0.46 µM; IC50 (MDA-MB-468 cells; [2]): 0.11 µM; IC50 [1]: 0.44 ± 0.34 µM; area under the dose response curve (AUC), mean ± SD [1]: 0.73 ± 0.10 |
